What was measured:
[1] = system: HCT116 cells (Securin+/+, securin parental, HCT116 FB); experiment: Growth inhibition (sulforhodamine B, 5 days) of securin parental cells; format: cell-based; conditions: Homo sapiens, HCT-116, 120 h, SRB
Protocol: (§1) IC50 analysis was performed for selected fused bicyclic 2-aryl or 2-heteroarylthiazolyl compounds that were tested on HCT116 cells and Securin “knock out” cell lines.
(§2) Cell Culture—HCT116 and securin “knock out” cells. HCT116 and securin “knock out” cells (D8 and F3) were grown in RPMI+5% fetal bovine serum and gentamycin. They were maintained in a humidified 37° C. incubator with 5% CO2. Since the securin “knock out” cells have active chromosomal instability, cells were used at a low passage number of 2-13 passages. At or before passage 13 a new vial of cells was thawed and used for the screen. Cell seeding—HCT116 cells and securin “knock out” cells were trypsinized and suspended in RPMI+5% FBS at a density of 27,000 cells/mL. HCT116 and securin “knock out” cells were seeded separately in wells of a 96-well plate (Falcon Cat # 35-3872) at a cell density of 4000 cells per well. Cells were seeded in 150 μL of RPMI media containing 5% FBS and gentamycin. Cell seeding was performed under aseptic conditions. Cells were allowed to attach and grow overnight in a humidified 37° C. incubator.
(§3) Compound Dilution and Dispensation. A series of stock solutions, 10 mg/mL of fused bicyclic 2-aryl- or 2-heteroarylthiazolyl compounds to be tested, were brought to room temperature. The compounds were diluted 1:50 in RPMI+5% FBS (Highest concentration 200 μg/mL). The compounds were then serially diluted 1:3 across a deep-well titration plate resulting in final concentrations in the plate of 200, 66.7, 22.2, 7.4, 2.4, 0.8, 0.27, 0.091, 0.03, 0.01, and 0.0034 μg/mL with one well left without a compound. 50 μL of this dilution series was added to the 150 μL of cells to result in a final concentration of compound in with the cells of 50, 16.6, 5.5, 1.8, 0.6, 0.2, 0.068, 0.023, 0.0076, 0.0025, and 0.00084 μg/mL. The dilution and addition of compounds to the plates is performed using a Multimek 96 Robot (Beckman Coulter).
(§4) Incubation and analysis. After dosing, the cells in the 96 well plates were returned to the humidified 37° C. incubator. The compounds remained on the cells for 5 days. After 5 days, the cells were fixed to the plates with the addition of 50 μL of 50% (vol/vol) Trichloro Acetic Acid ([…]). The cells were fixed at 4° C. for 1 hour. The plates were washed 5 times in distilled water and allowed to dry. The cells were stained with 0.4% sulforhodamine B (Sigma) in 1% acetic acid. The cells were stained for 15 minutes at room temperature. The plates were then washed 3 times in 1% acetic acid. The plates were dried and the dye was solubilized in 10 mM Tris at pH 8.0. The plates were read on the Absorbence 560 setting on a Victor^2 V Model 1420 Multilabel HTS counter (Perkin Elmer).
(§5) Analysis of Results—IC50 data. Absorbence data was read off of the Victor and was converted to a percentage of the control (untreated) values. IC50 values were graphed and the point at which a 50% inhibition of the control level was determined. […] If the model was not able to determine an IC50, the IC50 was assigned to the lowest concentration that gives a 50% or greater decrease in absorbence compared to control levels. If the calculated IC50 value for a cell line exceeds the top concentration for the assay (typically 50 μg/mL), the assay was scored as >50.
(§6) Selectivity Ratio. The Selectivity Ratio is the ratio of IC50s between the parent cell line and the knock out cell line and is always a positive number and is typically an integer.

[2] = system: securin "knock out" cells D8 (Securin-/-); experiment: Growth inhibition (sulforhodamine B, 5 days) of securin knock out cells D8; format: cell-based; conditions: for IC50: 120 h, securin knock out D8 cells, 5 days, SRB; for Selectivity Ratio D8: IC50 HCT116 / IC50 securin KO D8
Protocol: as §1, §2, §3, §4, §5, §6

[3] = system: securin "knock out" cells F3 (Securin-/-); experiment: Growth inhibition (sulforhodamine B, 5 days) of securin knock out cells F3; format: cell-based; conditions: for IC50: 120 h, securin knock out F3 cells, 5 days, SRB; for Selectivity Ratio F3: IC50 HCT116 / IC50 securin KO F3
Protocol: as §1, §2, §3, §4, §5, §6

[4] = system: Xenografts of a Human Breast Carcinoma Cell Line (MDA-MB-361); experiment: Tumor xenograft study versus Herceptin (Table 2); format: in vivo
Protocol: (§7) Selected fused bicyclic 2-aryl- or 2-heteroarylthiazolyl compounds of formula I were tested for their activity in a securin parental cell line (HCT116 FB) and a securin knockout (KO) cell line. […] The in-vivo activity of selected fused bicyclic 2-aryl- or 2-heteroarylthiazolyl compounds of formula I was studied in cells growing as xenografts in athymic (nude) mice. The effect of Examples 164, 166 and 167 was studied in xenografts of a human breast carcinoma cell line (MDA-MB-361).
(§8) In-vivo Activity in Tumor Xenografts. […] The fused bicyclic 2-arylthiazolyl compounds were formulated using 0.5% Methocel™ (methylcellulose) and 0.4% Tween 80™ (polysorbate-80 and oleic acid) and administered daily orally (PO), by gavage or by syringe. Tumor mass [(length×width^2)/2] was determined every 7 days. Inhibition of tumor growth was calculated relative to conventional (vehicle treated) controls.

[5] = system: Xenografts of a Human Breast Carcinoma Cell Line (MDA-MB-361); experiment: Tumor xenograft study versus Vincristine (Table 3); format: in vivo; conditions: days 2 through 21; for S/T = # of Survivors/# of Treated on Day +36: * = sacrificed earlier due to tumor size
Protocol: as §7, §8
The effectiveness of Examples 164, 166 and 167 versus Vincristine at controlling tumor growth was studied and the results are summarized in Table 3 and FIG. 2.

[6] = 20 mg/kg/dose PO, days 1 through 20
[7] = 25 mg/kg/dose IP, days 1, 3, 5 ... 19
[8] = 25 mg/kg/dose PO, days 1 through 20

CN(C)c1ccc(-c2nc3c(s2)C(O)CCC3)cc1 (stereo not drawn) [Example 166, 2-[4-(dimethylamino)phenyl]-4,5,6,7-tetrahydro-1,3-benzothiazol-7-ol]
IC50 [1]: 52.5 µM | IC50 [2]: 1.7 µM | Selectivity Ratio D8 [2]: 30 | IC50 [3]: 3.5 µM | Selectivity Ratio F3 [3]: 15 | % T/C Day 7 [4, 6]: 69% | % T/C Day 14 [4, 6]: 126% | % T/C Day 21 [4, 6]: 102% | Relative Tumor Growth Day 7 [4, 6]: 1.33 | Relative Tumor Growth Day 14 [4, 6]: 4.05 | Relative Tumor Growth Day 21 [4, 6]: 10.76 | S/T = # of Survivors/# of Treated on Day +21 [4, 6]: 10/10 | % T/C Day 7 [4, 7]: 80% | % T/C Day 14 [4, 7]: 93% | % T/C Day 21 [4, 7]: 92% | Relative Tumor Growth Day 7 [4, 7]: 1.55 | Relative Tumor Growth Day 14 [4, 7]: 3.00 | Relative Tumor Growth Day 21 [4, 7]: 9.63 | S/T = # of Survivors/# of Treated on Day +21 [4, 7]: 8/10 | % T/C Day 8 ([5]; 10 mg/kg/dose PO): 60% | % T/C Day 15 ([5]; 10 mg/kg/dose PO): 60% | % T/C Day 22 ([5]; 10 mg/kg/dose PO): 100% | Relative Tumor Growth Day 8 ([5]; 10 mg/kg/dose PO): 3.16 | Relative Tumor Growth Day 15 ([5]; 10 mg/kg/dose PO): 7.40 | Relative Tumor Growth Day 22 ([5]; 10 mg/kg/dose PO): 22.01 | % T/C Day 8 ([5]; 30 mg/kg/dose PO): 55% | % T/C Day 15 ([5]; 30 mg/kg/dose PO): 59% | % T/C Day 22 ([5]; 30 mg/kg/dose PO): 98% | Relative Tumor Growth Day 8 ([5]; 30 mg/kg/dose PO): 2.87 | Relative Tumor Growth Day 15 ([5]; 30 mg/kg/dose PO): 7.34 | Relative Tumor Growth Day 22 ([5]; 30 mg/kg/dose PO): 21.48 | % T/C Day 8 ([5]; 40 mg/kg/dose PO): 33% | % T/C Day 15 ([5]; 40 mg/kg/dose PO): 35% | % T/C Day 22 ([5]; 40 mg/kg/dose PO): 53% | Relative Tumor Growth Day 8 ([5]; 40 mg/kg/dose PO): 1.72 | Relative Tumor Growth Day 15 ([5]; 40 mg/kg/dose PO): 4.29 | Relative Tumor Growth Day 22 ([5]; 40 mg/kg/dose PO): 11.74 | Relative Tumor Growth Day 29 ([5]; 40 mg/kg/dose PO): 7.65 | % T/C Day 8 ([5]; 50 mg/kg/dose PO): 58% | % T/C Day 15 ([5]; 50 mg/kg/dose PO): 62% | Relative Tumor Growth Day 8 ([5]; 50 mg/kg/dose PO): 3.04 | Relative Tumor Growth Day 15 ([5]; 50 mg/kg/dose PO): 7.67 | Relative Tumor Growth Day 22 ([5]; 50 mg/kg/dose PO): Toxic | S/T = # of Survivors/# of Treated on Day +36 ([5]; 50 mg/kg/dose PO): 0/5

CN(C)c1ccc(-c2nc3c(s2)[C@H](O)CCC3)cc1 [Example 164, (7R)-2-[4-(dimethylamino)phenyl]-4,5,6,7-tetrahydro-1,3-benzothiazol-7-ol]
IC50 [1]: 101 µM | selectivity ratios (IC50 HCT116 FB/IC50 securin KO) [2]: high selectivity ratios | IC50 [2]: 0.81 µM | Selectivity Ratio D8 [2]: 124 | IC50 [3]: 1.3 µM | Selectivity Ratio F3 [3]: 78 | % T/C Day 7 [4, 7]: 64% | % T/C Day 14 [4, 7]: 101% | % T/C Day 21 [4, 7]: 74% | Relative Tumor Growth Day 7 [4, 7]: 1.23 | Relative Tumor Growth Day 14 [4, 7]: 3.23 | Relative Tumor Growth Day 21 [4, 7]: 8.04 | S/T = # of Survivors/# of Treated on Day +21 [4, 7]: 4/5 | % T/C Day 7 [4, 8]: 81% | % T/C Day 14 [4, 8]: 115% | % T/C Day 21 [4, 8]: 117% | Relative Tumor Growth Day 7 [4, 8]: 1.57 | Relative Tumor Growth Day 14 [4, 8]: 3.68 | Relative Tumor Growth Day 21 [4, 8]: 12.27 | S/T = # of Survivors/# of Treated on Day +21 [4, 8]: 5/5 | % T/C Day 8 ([5]; 25 mg/kg/dose PO): 41% | % T/C Day 15 ([5]; 25 mg/kg/dose PO): 37% | % T/C Day 22 ([5]; 25 mg/kg/dose PO): 45% | Relative Tumor Growth Day 8 ([5]; 25 mg/kg/dose PO): 2.17 | Relative Tumor Growth Day 15 ([5]; 25 mg/kg/dose PO): 4.64 | Relative Tumor Growth Day 22 ([5]; 25 mg/kg/dose PO): 10.02 | Relative Tumor Growth Day 29 ([5]; 25 mg/kg/dose PO): 15.52 | % T/C Day 8 ([5]; 50 mg/kg/dose PO): 45% | Relative Tumor Growth Day 8 ([5]; 50 mg/kg/dose PO): 2.37 | Relative Tumor Growth Day 15 ([5]; 50 mg/kg/dose PO): Toxic | S/T = # of Survivors/# of Treated on Day +36 ([5]; 50 mg/kg/dose PO): 0/5

— patent publication US20090270363A1, “2-Aryl- and 2-Heteroarylthiazolyl Compounds, Methods for Their Preparation and Use Thereof” (Wyeth, priority 2008, published 2009)
